Several values for one entry are separate records, joined by “and”; a condition that tells them apart may be missing. Equal values may be shown once. Toxic doses and inconclusive results are not listed. How the source made its calls: active means survival T/C of 150% or more; inactive means T/C below 125% in these data.
Tested on: BDF1 mice, P388 leukemia ip, median survival T/C
Assay: NCI In Vivo Anticancer Drug Screen. Data for tumor model P388 Leukemia (intraperitoneal) in B6D2F1 (BDF1) mice
Settings: endpoint: median survival time, higher = longer survival
In short: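 Compound-treated tumour-bearing mice were compared with vehicle-treated controls. Survival was recorded, and the value is the treated-group measurement divided by the control-group measurement (T/C).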

[1] = dose: 100.0 mg/kg/injection, schedule: Q01DX001 (ip), vehicle: saline
[2] = dose: 100.0 mg/kg/injection, schedule: Q01DX009 (ip), vehicle: saline with Tween-80
[3] = dose: 100.0 mg/kg/injection, schedule: Q04DX003 (ip), vehicle: saline
[4] = dose: 200.0 mg/kg/injection, schedule: Q01DX001 (ip), vehicle: saline
[5] = dose: 200.0 mg/kg/injection, schedule: Q01DX009 (ip), vehicle: saline with Tween-80
[6] = dose: 200.0 mg/kg/injection, schedule: Q04DX003 (ip), vehicle: saline
[7] = dose: 50.0 mg/kg/injection, schedule: Q01DX009 (ip), vehicle: saline with Tween-80
[8] = dose: 30.0 mg/kg/injection, schedule: Q01DX009 (ip), vehicle: saline with Tween-80
[9] = dose: 60.0 mg/kg/injection, schedule: Q01DX009 (ip), vehicle: saline with Tween-80
[10] = dose: 25.0 mg/kg/injection, schedule: Q01DX009 (ip), vehicle: saline with Tween-80
[11] = dose: 100.0 mg/kg/injection, schedule: Q04DX003 (ip), vehicle: saline with Tween-80
[12] = dose: 200.0 mg/kg/injection, schedule: Q04DX003 (ip), vehicle: saline with Tween-80
[13] = dose: 400.0 mg/kg/injection, schedule: Q01DX009 (ip), vehicle: saline with Tween-80
[14] = dose: 400.0 mg/kg/injection, schedule: Q04DX003 (ip), vehicle: saline with Tween-80
[15] = dose: 15.0 mg/kg/injection, schedule: Q01DX009 (ip), vehicle: saline with Tween-80
[16] = dose: 100.0 mg/kg/injection, schedule: Q01DX009 (ip), vehicle: saline
[17] = dose: 50.0 mg/kg/injection, schedule: Q01DX009 (ip), vehicle: Klucel (hydroxypropylcellulose) (HPC)
[18] = dose: 6.25 mg/kg/injection, schedule: Q01DX009 (ip), vehicle: saline with Tween-80
[19] = dose: 12.5 mg/kg/injection, schedule: Q01DX009 (ip), vehicle: saline with Tween-80

Measured: T/C

O=[N+]([O-])c1cccc(O)c1
inactive: [1] 100 % of control | [2] 109 % of control | [3] 118 % of control | [4] 100 % of control | [5] 86 % of control | [6] 100 % of control | dose: 400.0 mg/kg/injection, schedule: Q01DX001 (ip), vehicle: saline 100 % of control

COCCn1c2c(n/c(=C(\O)OC)c1=N)CCCC=2
inactive: [7] 106 % of control | [2] 116 % of control | [5] 97 % of control

O=C(/C=C/c1ccc(OCc2ccccc2)cc1)c1ccc(Cl)c(Cl)c1Cl
inactive: [7] 98 % of control | [2] 90 % of control | [5] 89 % of control

COc1cccc(Sc2ccc([N+](=O)[O-])c3no[n+]([O-])c23)c1
inactive: [8] 102 % of control | [9] 115 % of control

CCN(CC)c1c(-c2ccccc2)nnc2c3ccccc3nn12
inactive: [10] 100 % of control | [7] 88 % of control | [2] 100 % of control

c1ccc2cc3c(cc2c1)Nc1cc2ccccc2cc1N3
inactive: [2] 96 % of control | [11] 100 % of control | [5] 103 % of control | [12] 100 % of control | [13] 100 % of control | [14] 108 % of control

c1cc[c]([Sn]([S][Sn]([c]2ccccc2)([c]2ccccc2)[c]2ccccc2)([c]2ccccc2)[c]2ccccc2)cc1
inactive: [7] 98 % of control | [2] 93 % of control | [5] 114 % of control | [13] 86 % of control

O=CC1CO1 (stereo unspecified)
inactive: dose: 33.0 mg/kg/injection, schedule: Q01DX009 (ip), vehicle: saline 116 % of control
active: dose: 33.0 mg/kg/injection, schedule: Q01DX009 (ip), vehicle: saline sonified 150 % of control

CC1C=CC(C)C(C(=O)c2ccccc2)C1C(=O)c1ccccc1 (stereo unspecified)
inactive: dose: 100.0 mg/kg/injection, schedule: Q04DX003 (ip), vehicle: Klucel (hydroxypropylcellulose) (HPC) 104 % of control | dose: 200.0 mg/kg/injection, schedule: Q04DX003 (ip), vehicle: Klucel (hydroxypropylcellulose) (HPC) 100 % of control | dose: 400.0 mg/kg/injection, schedule: Q04DX003 (ip), vehicle: Klucel (hydroxypropylcellulose) (HPC) 100 % of control

O=C1NC(=O)C([N+](=O)[O-])=C(O)C1=O
active: dose: 9.0 mg/kg/injection, schedule: Q01DX009 (ip), vehicle: saline with Tween-80 150 % of control
inactive: dose: 1.0 mg/kg/injection, schedule: Q01DX009 (ip), vehicle: saline with Tween-80 110 % of control | dose: 4.0 mg/kg/injection, schedule: Q01DX009 (ip), vehicle: saline with Tween-80 105 % of control | dose: 8.0 mg/kg/injection, schedule: Q01DX009 (ip), vehicle: saline with Tween-80 100 % of control | [15] 95 % of control | dose: 18.0 mg/kg/injection, schedule: Q01DX009 (ip), vehicle: saline with Tween-80 110 % of control | dose: 25.0 mg/kg/injection, schedule: Q04DX003 (ip), vehicle: other 104 % of control | dose: 35.0 mg/kg/injection, schedule: Q01DX009 (ip), vehicle: saline with Tween-80 100 % of control and 120 % of control | dose: 35.0 mg/kg/injection, schedule: Q04DX003 (ip), vehicle: other 104 % of control | [7] 90 % of control and 95 % of control | dose: 50.0 mg/kg/injection, schedule: Q04DX003 (ip), vehicle: other 104 % of control | dose: 50.0 mg/kg/injection, schedule: Q04DX003 (ip), vehicle: saline 118 % of control | dose: 75.0 mg/kg/injection, schedule: Q01DX009 (ip), vehicle: saline with Tween-80 105 % of control | dose: 75.0 mg/kg/injection, schedule: Q04DX003 (ip), vehicle: other 100 % of control | [3] 109 % of control | dose: 150.0 mg/kg/injection, schedule: Q01DX009 (ip), vehicle: saline with Tween-80 95 % of control | [6] 104 % of control and 122 % of control | dose: 300.0 mg/kg/injection, schedule: Q01DX009 (ip), vehicle: saline with Tween-80 90 % of control

Cc1cc(C)c2c(=O)[nH][nH]c2n1
inactive: [2] 96 % of control | [5] 100 % of control | [13] 94 % of control

O=C(Nc1ccccc1)C1(Br)CC2(C1)CC(Br)(C(=O)Nc1ccccc1)C2 (stereo unspecified)
inactive: dose: 100.0 mg/kg/injection, schedule: Q01DX001 (ip), vehicle: saline with Tween-80 92 % of control | dose: 200.0 mg/kg/injection, schedule: Q01DX001 (ip), vehicle: saline with Tween-80 99 % of control

CC(C)Oc1ccc(Nc2ccccc2)cc1
inactive: dose: 100.0 mg/kg/injection, schedule: Q01DX001 (ip), vehicle: Klucel (hydroxypropylcellulose) (HPC) 100 % of control | dose: 200.0 mg/kg/injection, schedule: Q01DX001 (ip), vehicle: Klucel (hydroxypropylcellulose) (HPC) 100 % of control | dose: 400.0 mg/kg/injection, schedule: Q01DX001 (ip), vehicle: Klucel (hydroxypropylcellulose) (HPC) 91 % of control

CNC(=S)N/N=C/c1ccc([N+](=O)[O-])s1
inactive: [13] 94 % of control

Nc1nc(N)c(N=O)c(Nc2ccc(I)cc2)n1
inactive: [2] 108 % of control | [11] 112 % of control | [5] 95 % of control | [12] 108 % of control | [14] 100 % of control

Cc1c(Cl)cnc(N)c1Cl (tested in a mixture with another compound)
active: [2] 156 % of control
inactive: [7] 96 % of control | [5] 105 % of control

N#Cc1ccc(OC(=O)c2ccc(N=C(N)N)cc2)cc1
inactive: dose: 50.0 mg/kg/injection, schedule: Q01DX009 (ip), vehicle: saline 100 % of control | [16] 104 % of control | [3] 104 % of control | dose: 200.0 mg/kg/injection, schedule: Q01DX009 (ip), vehicle: saline 90 % of control | [6] 113 % of control

COc1cc(C(C2=C(O)c3ccccc3C(=O)C2=O)C2=C(O)c3ccccc3C(=O)C2=O)cc(Br)c1O
inactive: dose: 33.0 mg/kg/injection, schedule: Q01DX001 (ip), vehicle: saline 95 % of control | dose: 50.0 mg/kg/injection, schedule: Q01DX001 (ip), vehicle: saline 104 % of control | dose: 75.0 mg/kg/injection, schedule: Q01DX001 (ip), vehicle: saline 100 % of control | [1] 115 % of control | [4] 110 % of control

COc1c(C)c(OCC=C(C)C)cc(CO)c1CO
inactive: [17] 109 % of control | dose: 100.0 mg/kg/injection, schedule: Q01DX009 (ip), vehicle: Klucel (hydroxypropylcellulose) (HPC) 109 % of control | dose: 200.0 mg/kg/injection, schedule: Q01DX009 (ip), vehicle: Klucel (hydroxypropylcellulose) (HPC) 100 % of control

COc1ccccc1C(c1ccccc1OC)N(C)C(C)(C)CO
inactive: [18] 100 % of control | [19] 91 % of control | [10] 91 % of control

O=[N+]([O-])c1cc2no[n+]([O-])c2cc1N1CCN(c2cc3c(cc2[N+](=O)[O-])no[n+]3[O-])CC1
inactive: [15] 97 % of control | [8] 98 % of control | [9] 97 % of control

Cc1[o+]c(C)c2c(c1C)-c1ccccc1C2=O
inactive: [18] 104 % of control | [19] 113 % of control | [10] 98 % of control | dose: 25.0 mg/kg/injection, schedule: Q04DX003 (ip), vehicle: saline with Tween-80 109 % of control | [7] 106 % of control | [2] 120 % of control | [11] 100 % of control | [5] 104 % of control | [12] 116 % of control

C=C1C(=O)CCC1C(=O)O (stereo unspecified)
active: dose: 400.0 mg/kg/injection, schedule: Q01DX009 (ip), vehicle: saline 150 % of control and 154 % of control and 162 % of control | dose: 600.0 mg/kg/injection, schedule: Q01DX009 (ip), vehicle: saline 170 % of control and 182 % of control | dose: 900.0 mg/kg/injection, schedule: Q01DX009 (ip), vehicle: saline 175 % of control
inactive: [16] 100 % of control and 109 % of control | dose: 178.0 mg/kg/injection, schedule: Q04DX003 (ip), vehicle: saline 106 % of control | dose: 266.0 mg/kg/injection, schedule: Q04DX003 (ip), vehicle: saline 108 % of control | dose: 400.0 mg/kg/injection, schedule: Q04DX003 (ip), vehicle: saline 123 % of control

CC(=O)C(C#N)c1ccccc1 (stereo unspecified)
inactive: dose: 12.5 mg/kg/injection, schedule: Q01DX009 (ip), vehicle: Klucel (hydroxypropylcellulose) (HPC) 118 % of control | dose: 25.0 mg/kg/injection, schedule: Q01DX009 (ip), vehicle: Klucel (hydroxypropylcellulose) (HPC) 109 % of control | [17] 90 % of control

— PubChem BioAssay AID328 (DTP/NCI, 2004)
